This passage reports IC50 and Kd results from PMC5050210, “BdorOBP83a-2 Mediates Responses of the Oriental Fruit Fly to Semiochemicals” (Frontiers in Physiology, 2016).

Structures are written as SMILES.

Experiment [1] has as its target T1, BdorOBP83a-2 (Bactrocera dorsalis, UniProt A0A0G2UEQ3).
T1 construct: gene OBP83a-2; mature protein without signal peptide
T1 sequence (A0A0G2UEQ3 24-148): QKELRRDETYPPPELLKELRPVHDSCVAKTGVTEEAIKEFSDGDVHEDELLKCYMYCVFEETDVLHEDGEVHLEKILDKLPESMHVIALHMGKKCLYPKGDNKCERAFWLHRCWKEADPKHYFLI
Put plainly: biochemical. Details: Fluorescence competitive displacement of 1-NPN from recombinant OBP, 25 °C, pH 7.4; competitor 5-50 uM. The following applies: 1-NPN displacement, 2 uM protein, 2 uM 1-NPN. On the procedure: (§1) Fluorescence spectra were measured on an F-7000 FL Fluorescence Spectrophotometer (Hitachi) in a 10 mm light path quartz cuvette at 25°C. […] The emission spectra were recorded between 350 and 500 nm. […] All measurements were performed in triplicates and mean values and standard errors are calculated. […] To determine the roles of specific OBPs in recognition of attractants in B. dorsalis, recombinant proteins of selected antenna-abundant OBPs and CSPs were obtained using a prokaryotic expression system (Figure 5). Purified OBPs and CSPs were used to determine binding affinity of each protein via fluorescence competitive binding assays. Thirteen pure attractant compounds were tested against each recombinant protein. […] PCR fragments were digested with both EcoRI and XhoI enzymes and the released DNA fragments were cloned into a PET-32a vector (Invitrogen), which were used to transform BL21 (DE3) E. coli competent cells (Invitrogen). […] LB/ampicillin medium overnight at 37°C. Protein expression was induced with 1 mM IPTG for 3 h when the culture had reached an OD600-value of 0.7–0.9. Cells were then harvested by centrifugation and lysed by sonication. […] Renaturation of purified proteins were accomplished by gradient dilution at 4°C. His-tag was removed by digestion with recombinant enterokinase (Novagen) and the digested mixtures were passed through a HisTrap affinity column to remove any undigested protein. At each step during protein preparation and purification, protein extracts, and purified proteins were examined on 15% SDS-PAGE.

The target of experiment [2] is T1, BdorOBP83a-2. The experiment in a line: 1-NPN fluorescence competition. The format is binding. The following applies: 50 mM Tris-HCl pH 7.4, 25°C; 2 μM protein, 2 μM 1-NPN; competitive displacement.
The target in experiment [3] is T2, BdorOBP56h (Bactrocera dorsalis, UniProt A0A0G2UMU0).
T2 construct: gene OBP56h; mature protein without signal peptide
T2 sequence (A0A0G2UMU0 20-136): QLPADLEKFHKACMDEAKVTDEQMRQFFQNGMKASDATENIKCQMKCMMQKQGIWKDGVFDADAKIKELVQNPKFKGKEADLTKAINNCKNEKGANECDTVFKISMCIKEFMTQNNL
The experiment in a line: biochemical. The note with it: 1-NPN displacement; for IC50: 2 uM protein, 2 uM 1-NPN, extrapolated, read-out: BdorOBP56 / IC50; for Kd: Kd from IC50, extrapolated, read-out: BdorOBP56 / Kd. The arrangement: Fluorescence competitive displacement of 1-NPN from recombinant OBP, 25 °C, pH 7.4; competitor 5-50 uM. As to the method: (§2) Fluorescence spectra were measured on an F-7000 FL Fluorescence Spectrophotometer (Hitachi) in a 10 mm light path quartz cuvette at 25°C. All were excited at 337 nm with emission and excitation slit of both 10 nm. The emission spectra were recorded between 350 and 500 nm. […] All measurements were performed in triplicates and mean values and standard errors are calculated. […] To determine the roles of specific OBPs in recognition of attractants in B. dorsalis, recombinant proteins of selected antenna-abundant OBPs and CSPs were obtained using a prokaryotic expression system (Figure 5). Purified OBPs and CSPs were used to determine binding affinity of each protein via fluorescence competitive binding assays. Thirteen pure attractant compounds were tested against each recombinant protein. […] Except for BdorCSP3 and BdorOBP84a-2, all remaining OBPs could bind to the tested compounds (Figure 6; Table S8). […] Alternatively they might be involved in functions other than odor detection. […] Overall, we observed lower binding affinity with our recombinant proteins and tested attractants. […] In other studies, much higher affinity has been reported. For example, competitive binding assays with a lepidopteran pheromone-binding protein can reach nearly 100% displacement (Hooper et al., [2009]; Gu et al., [2013]), and competitive binding assays with an aphid OBP (OBP7) can reach about 80% displacement with the alarm pheromone (E)-ss-farnesene (Sun et al., [2012]). The biological significance of the observed lower affinity with B. doralis OBPs here remains to be determined. It could be due to diverse binding mechanisms between different functional OBPs and the corresponding compounds. Alternatively, BdorOBP83a-2 may […] The sequences of BdorOBPs and BdorCSPs encoding mature proteins (without signal peptide) were amplified by PCR using specific primers carrying a restriction site EcoRI or XhoI (Table S2). PCR fragments were digested with both EcoRI and XhoI enzymes and the released DNA fragments were cloned into a PET-32a vector (Invitrogen), which were used to transform BL21 (DE3) E. coli competent cells (Invitrogen). A selected positive clone was grown overnight in 5 mL [compound left out] LB/ampicillin medium overnight at 37°C. Protein expression was induced with 1 mM IPTG for 3 h when the culture had reached an OD600-value of 0.7–0.9. Cells were then harvested by centrifugation and lysed by sonication. After sonication and centrifugation, most recombinant proteins were present in inclusion bodies. […] Renaturation of purified proteins were accomplished by gradient dilution at 4°C. His-tag was removed by digestion with recombinant enterokinase (Novagen) and the digested mixtures were passed through a HisTrap affinity column to remove any undigested protein. At each step during protein preparation and purification, protein extracts, and purified proteins were examined on 15% SDS-PAGE.

For experiment [4], the target named is T3, BdorOBP83a-1 (Bactrocera dorsalis, UniProt A0A0G2UGI4).
T3 construct: gene OBP83a-1; mature protein without signal peptide
T3 sequence (A0A0G2UGI4 32-155): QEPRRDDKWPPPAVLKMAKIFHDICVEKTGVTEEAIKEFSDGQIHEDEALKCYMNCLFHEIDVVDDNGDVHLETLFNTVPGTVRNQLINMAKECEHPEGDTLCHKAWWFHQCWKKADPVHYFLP
The experiment in a line: 1-NPN fluorescence competition. The following applies: 50 mM Tris-HCl pH 7.4, 25°C; 2 μM protein, 2 μM 1-NPN; competitive displacement. The format is binding.

The target in experiment [5] is T3, BdorOBP83a-1. The experiment in a line: biochemical. The arrangement: Fluorescence competitive displacement of 1-NPN from recombinant OBP, 25 °C, pH 7.4; competitor 5-50 uM. The following applies: 1-NPN displacement, 2 uM protein, 2 uM 1-NPN, extrapolated. On the procedure:
as §1

For experiment [6], the target named is T4, BdorOBP84a-1 (Bactrocera dorsalis, UniProt A0A0G2UGI7).
T4 construct: gene OBP84a-1; mature protein without signal peptide
T4 sequence (A0A0G2UGI7 25-167): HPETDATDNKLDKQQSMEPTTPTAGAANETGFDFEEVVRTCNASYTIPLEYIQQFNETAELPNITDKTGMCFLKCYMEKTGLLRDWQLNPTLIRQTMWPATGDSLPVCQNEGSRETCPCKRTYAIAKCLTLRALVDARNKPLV
Put plainly: biochemical. Details: Fluorescence competitive displacement of 1-NPN from recombinant OBP, 25 °C, pH 7.4; competitor 5-50 uM. The note with it: 1-NPN displacement; for IC50: 2 uM protein, 2 uM 1-NPN, extrapolated; for Kd: Kd from IC50, extrapolated. On the procedure:
as §2

Experiment [7] deals with T1, BdorOBP83a-2. The experiment in a line: biochemical. Details: Fluorescence competitive displacement of 1-NPN from recombinant OBP, 25 °C, pH 7.4; competitor 5-50 uM. The following applies: 1-NPN displacement, Kd from IC50. On the procedure: as §2
Experiment [8] deals with T3, BdorOBP83a-1. Put plainly: biochemical. Details: Fluorescence competitive displacement of 1-NPN from recombinant OBP, 25 °C, pH 7.4; competitor 5-50 uM. The following applies: 1-NPN displacement, Kd from IC50, extrapolated. On the procedure:
as §2

Experiment [9] deals with T2, BdorOBP56h. The experiment in a line: 1-NPN fluorescence competition. It counts as binding. The note with it: 50 mM Tris-HCl pH 7.4, 25°C; 2 μM protein, 2 μM 1-NPN; competitive displacement. On the procedure:
1-NPN fluorescence competition on BdorOBP56h | all remaining OBPs could bind to the tested compounds

Experiment [10] concerns the target T4, BdorOBP84a-1. The experiment in a line: 1-NPN fluorescence competition. The following applies: 50 mM Tris-HCl pH 7.4, 25°C; 2 μM protein, 2 μM 1-NPN; competitive displacement. It counts as binding. From the text: 1-NPN fluorescence competition on BdorOBP84a-1 | all remaining OBPs could bind to the tested compounds

Take `CCCC1CCCC(=O)O1` (stereo not drawn) [δ-octalactone]: the IC50 on BdorOBP83a-2 [1] and on BdorOBP56h [3] was above 50 µM each time. For the same compound, the Kd at BdorOBP83a-2 [2] was 54.7 µM; on BdorOBP56h [3], above 50 µM; on BdorOBP83a-1 [4], 12700 µM.
Take `COc1cc(/C=C/CO)ccc1O` [E-coniferyl alcohol]: the IC50 at BdorOBP83a-2 [1], on BdorOBP83a-1 [5] and at BdorOBP84a-1 [6] was above 50 µM throughout. Moreover, the Kd at BdorOBP84a-1 [6], on BdorOBP83a-2 [7] and at BdorOBP83a-1 [8] was above 50 µM each time.
In the case of `CCOC(=O)c1ccccc1` [Ethyl benzoate], the IC50 at BdorOBP83a-2 [1], at BdorOBP84a-1 [6] and at BdorOBP56h [3] was above 50 µM throughout. The Kd on BdorOBP84a-1 [6], on BdorOBP83a-2 [7] and on BdorOBP56h [3] was above 50 µM each time.
In the case of `C/C=C(\C)C(=O)OCC` [Ethyl tiglate], the IC50 on BdorOBP83a-2 [1], on BdorOBP83a-1 [5] and on BdorOBP56h [3] was above 50 µM each time. Moreover, the Kd on BdorOBP83a-2 [7], on BdorOBP56h [3] and on BdorOBP83a-1 [8] was above 50 µM in each case.
As to `CCCCCC1CCC(=O)O1` (stereo not drawn) [γ-nonanoic lactone], the IC50 at BdorOBP83a-2 [1], at BdorOBP84a-1 [6] and on BdorOBP56h [3] was above 50 µM in each case. Besides, the Kd is 52.5 µM at BdorOBP83a-2 [2], above 50 µM at BdorOBP84a-1 [6], above 50 µM at BdorOBP56h [3] and 85900 µM on BdorOBP83a-1 [4].
Consider `C=CCc1ccc(OC)c(OC)c1` [methyl eugenol, 4-allyl-1,2-dimethoxybenzene], for which the Kd on BdorOBP56h [9] was 578 µM; on BdorOBP84a-1 [10] it was 79700 µM; at BdorOBP83a-2 [2] it was 34 µM; at BdorOBP83a-1 [4] it was 2530 µM. The IC50 is 50.8 µM at BdorOBP83a-2 [1], above 50 µM at BdorOBP83a-1 [5] and above 50 µM on BdorOBP56h [3].
Consider `CC1=CCC(=C(C)C)CC1` [Terpinolene], for which the IC50 on BdorOBP83a-2 [1], on BdorOBP83a-1 [5], at BdorOBP84a-1 [6] and at BdorOBP56h [3] was above 50 µM each time. For the same compound, the Kd on BdorOBP84a-1 [6], on BdorOBP83a-2 [7], on BdorOBP56h [3] and at BdorOBP83a-1 [8] was above 50 µM throughout.
For the compound `CCCCC1CCC(=O)O1` (stereo not drawn) [γ-octalactone], the IC50 on BdorOBP83a-2 [1], at BdorOBP83a-1 [5], at BdorOBP84a-1 [6] and at BdorOBP56h [3] was above 50 µM each time. For the same compound, the Kd at BdorOBP84a-1 [6] and at BdorOBP56h [3] was above 50 µM in each case.
On to `C=CC(O)CCCCC` (stereo not drawn) [1-octen-3-ol], for which the IC50 on BdorOBP83a-2 [1], at BdorOBP83a-1 [5], on BdorOBP84a-1 [6] and at BdorOBP56h [3] was above 50 µM each time. Besides, the Kd on BdorOBP84a-1 [6], on BdorOBP83a-2 [7], at BdorOBP56h [3] and at BdorOBP83a-1 [8] was above 50 µM in each case.
As to `CCCCCCCC1CCC(=O)O1` (stereo not drawn) [γ-undecalactone], at BdorOBP84a-1 [6], the IC50 was above 50 µM and the Kd is above 50 µM.
With `c1ccc2scnc2c1` [Benzothiazole], the IC50 on BdorOBP83a-2 [1], at BdorOBP83a-1 [5], on BdorOBP84a-1 [6] and on BdorOBP56h [3] was above 50 µM each time. Also, the Kd on BdorOBP84a-1 [6], at BdorOBP83a-2 [7], at BdorOBP56h [3] and on BdorOBP83a-1 [8] was above 50 µM each time.
Consider `CCOC(C)=O` [Ethyl acetate], for which the IC50 on BdorOBP83a-2 [1], at BdorOBP83a-1 [5] and on BdorOBP56h [3] was above 50 µM in each case. Further, the Kd on BdorOBP83a-2 [7], on BdorOBP56h [3] and on BdorOBP83a-1 [8] was above 50 µM throughout.
